In brackets after ≈: the same amount, converted by molar mass. Values belong to the compound of their own block, whether it stands above or below them.
Experiments:
Experiment in all cases: ≥ marks a high value that may be exact or a test limit, other limits are often not marked, values filed in µg/mL are converted to µM
[1] = test system: Staphylococcus epidermidis
[2] = test system: Staphylococcus aureus A170
Pseudomonas aeruginosa = test system: Pseudomonas aeruginosa
[3] = test system: Enterobacter cloacae ATCC 13047
[4] = test system: Pseudomonas aeruginosa CMCCB 1010
[5] = test system: Pseudomonas aeruginosa ATCC 27853
[6] = test system: Candida albicans ATCC 90028
[7] = test system: Staphylococcus aureus ATCC 25923
Staphylococcus aureus 37 = test system: Staphylococcus aureus 37
[8] = test system: Klebsiella pneumoniae ATCC 700603
Escherichia coli 117 = test system: Escherichia coli 117
Staphylococcus aureus 10 = test system: Staphylococcus aureus 10
[9] = test system: Candida parapsilosis ATCC 22019
Shigella dysenteriae = test system: Shigella dysenteriae
[10] = test system: Psychrobacter faecalis X29
[11] = test system: Enterococcus faecalis 981
Nocardia asteroides = test system: Nocardia asteroides
Candida glabrata 090902 = test system: Candida glabrata 090902
[12] = test system: Enterobacter cloacae CGMCC 1.57
Escherichia coli W160-37 = test system: Escherichia coli W160-37
Staphylococcus aureus = test system: Staphylococcus aureus
[13] = test system: Proteus vulgaris ATCC 6380
[14] = test system: Micrococcus luteus ATCC 9341
[15] = test system: Candida albicans ATCC 36232
[16] = test system: Escherichia coli ATCC 2592
[17] = test system: Staphylococcus aureus ATCC 6538
[18] = test system: Pseudomonas aeruginosa ATCC 9027
Escherichia coli D22 = test system: Escherichia coli D22
Micrococcus luteus A270 = test system: Micrococcus luteus A270
[19] = test system: Pseudomonas aeruginosa PTCC 2834
Aspergillus fumigatus = test system: Aspergillus fumigatus
[20] = test system: Staphylococcus aureus PTCC 1442
[21] = test system: Neurospora crassa CBS 327-54
[22] = test system: Pseudomonas aeruginosa PAO1
Acinetobacter baumannii = test system: Acinetobacter baumannii
Bacillus subtilis 168 = test system: Bacillus subtilis 168
[23] = test system: Escherichia coli BNCC 133264
[24] = test system: Pseudomonas aeruginosa BNCC 125486
[25] = test system: Staphylococcus aureus BNCC 186335
Escherichia coli K-12 = test system: Escherichia coli K-12
Escherichia coli = test system: Escherichia coli
Klebsiella pneumoniae = test system: Klebsiella pneumoniae
Listeria monocytogenes = test system: Listeria monocytogenes
[26] = test system: Staphylococcus aureus USA 300

MIC [1]: 14.5 µM (≈ 20 µg/mL)
MIC [2]: 7.26 µM (≈ 10 µg/mL)
Structure (SMILES): CC[C@H](C)[C@H](NC(=O)[C@@H]1CCCN1C(=O)[C@H](CC(C)C)NC(=O)[C@@H](N)CC(C)C)C(=O)N[C@H](C(=O)NCC(=O)N[C@@H](CC(N)=O)C(=O)N[C@@H](CC(C)C)C(=O)N[C@@H](CC(C)C)C(=O)N[C@@H](CCCCN)C(=O)N[C@@H](C)C(=O)N[C@@H](CC(C)C)C(=O)N[C@@H](CC(C)C)C(=O)O)C(C)C [LLPIVGNLLKALL]

MIC (Pseudomonas aeruginosa): 53.1 µM (≈ 80 µg/mL)
MIC [3]: 26.6 µM (≈ 40 µg/mL)
MIC [4]: 6.64 µM (≈ 10 µg/mL)
MIC [5]: 6.64 µM (≈ 10 µg/mL)
MIC [6]: 13.3 µM (≈ 20 µg/mL)
MIC [7]: 53.1 µM (≈ 80 µg/mL)
MIC (Staphylococcus aureus 37): ≥ 53.1 µM
MIC [8]: 13.3 µM (≈ 20 µg/mL)
MIC (Escherichia coli 117): ≥ 53.1 µM
MIC (Staphylococcus aureus 10): 26.6 µM (≈ 40 µg/mL)
MIC [9]: 13.3 µM (≈ 20 µg/mL)
MIC (Shigella dysenteriae): 6.64 µM (≈ 10 µg/mL)
Structure (SMILES): CC[C@H](C)[C@H](N)C(=O)N[C@@H](CC(N)=O)C(=O)N[C@@H](CC(C)C)C(=O)N[C@@H](CCCCN)C(=O)N[C@@H](C)C(=O)N[C@H](C(=O)N[C@@H](C)C(=O)N1CCC[C@H]1C(=O)N[C@@H](CC(C)C)C(=O)N[C@@H](C)C(=O)N[C@@H](CCCCN)C(=O)N[C@@H](CCCCN)C(=O)N[C@@H](CC(C)C)C(=O)N[C@@H](CC(C)C)C(=O)O)[C@@H](C)CC [INLKAIAPLAKKLL]

MIC [10]: ≥ 200 µM
MIC [11]: ≥ 50 µM
MIC (Nocardia asteroides): 25 µM (≈ 33 µg/mL)
MIC [7]: 25 µM (≈ 33 µg/mL)
MIC (Candida glabrata 090902): ≥ 100 µM
MIC [12]: ≥ 400 µM
Structure (SMILES): CC[C@H](C)[C@H](NC(=O)[C@H](CC(C)C)NC(=O)CNC(=O)[C@H](CO)NC(=O)[C@@H](NC(=O)[C@@H](N)Cc1ccccc1)[C@@H](C)CC)C(=O)NCC(=O)NCC(=O)N[C@@H](CC(C)C)C(=O)N[C@@H](CCSC)C(=O)N[C@@H](CCCCN)C(=O)N[C@@H](C)C(=O)N[C@@H](CC(C)C)C(N)=O [FISGLIGGLMKAL]

MIC (Escherichia coli W160-37): 22 µM (≈ 39.3 µg/mL)
MIC (Staphylococcus aureus): 17 µM (≈ 30.4 µg/mL)
Structure (SMILES): CC[C@H](C)[C@H](NC(=O)[C@H](CCCCN)NC(=O)[C@H](CCCCN)NC(=O)[C@H](Cc1c[nH]c2ccccc12)NC(=O)[C@H](CCCCN)NC(=O)[C@H](CO)NC(=O)[C@H](CC(C)C)NC(=O)[C@H](Cc1ccccc1)NC(=O)[C@@H](NC(=O)[C@H](CCCCN)NC(=O)[C@H](CC(C)C)NC(=O)[C@H](CC(C)C)NC(=O)[C@H](CCCCN)NC(=O)[C@@H]1CCCN1)[C@@H](C)O)C(=O)NCC(=O)O [PKLLKTFLSKWKKIG]

MIC [13]: ≥ 56.1 µM
MIC [14]: 14 µM (≈ 25 µg/mL)
MIC (Staphylococcus aureus): > 56.1 µM
MIC [15]: 28.1 µM (≈ 50 µg/mL)
MIC [16]: 28.1 µM (≈ 50 µg/mL)
MIC [17]: 56.1 µM (≈ 99.9 µg/mL)
MIC [18]: 28.1 µM (≈ 50 µg/mL)
Structure (SMILES): CC[C@H](C)[C@H](NC(=O)[C@H](CCCCN)NC(=O)[C@@H]1CCCN1C(=O)[C@H](CC(C)C)NC(=O)[C@H](Cc1ccccc1)NC(=O)[C@H](CC(N)=O)NC(=O)[C@H](C)N)C(=O)N[C@@H](Cc1ccccc1)C(=O)N[C@@H](CS)C(=O)N[C@@H](CCCCN)C(=O)N[C@H](C(=O)N[C@H](C(=O)N[C@@H](CCCN=C(N)N)C(=O)N[C@@H](CCCCN)C(=O)N[C@@H](CS)C(N)=O)[C@@H](C)O)[C@@H](C)CC [ANFLPKIFCKITRKC]

MIC (Escherichia coli D22): ≥ 150 µM
MIC (Micrococcus luteus A270): 15 µM (≈ 34.9 µg/mL)
MIC [19]: 20.6 µM (≈ 48 µg/mL)
MIC (Aspergillus fumigatus): ≥ 80 µM
MIC [20]: ≥ 43 µM
MIC [21]: ≥ 50 µM
Structure (SMILES): CSCC[C@H](NC(=O)[C@H](CO)NC(=O)[C@@H](N)CO)C(=O)N[C@@H](CCCCN)C(=O)N[C@@H](CC(C)C)C(=O)N[C@@H](CO)C(=O)N[C@@H](Cc1ccccc1)C(=O)N[C@@H](CCCN=C(N)N)C(=O)N[C@@H](C)C(=O)N[C@@H](CCCN=C(N)N)C(=O)N[C@@H](C)C(=O)N[C@@H](Cc1ccc(O)cc1)C(=O)NCC(=O)N[C@@H](Cc1ccccc1)C(=O)N[C@@H](CCCN=C(N)N)C(=O)NCC(=O)N1CCC[C@H]1C(=O)NCC(=O)N1CCC[C@H]1C(=O)N[C@@H](CCC(N)=O)C(=O)N[C@@H](CC(C)C)C(=O)O [SSMKLSFRARAYGFRGPGPQL]

MIC (Staphylococcus aureus): 1.36 µM (≈ 2 µg/mL)
MIC [22]: > 100 µM
MIC (Acinetobacter baumannii): ≥ 43.4 µM
MIC (Bacillus subtilis 168): 6.25 µM (≈ 9.21 µg/mL)
MIC [23]: ≥ 43.4 µM
MIC [24]: ≥ 86.8 µM
MIC [25]: 1.36 µM (≈ 2 µg/mL)
MIC (Escherichia coli K-12): 25 µM (≈ 36.8 µg/mL)
MIC (Escherichia coli): 21.7 µM (≈ 32 µg/mL)
MIC (Klebsiella pneumoniae): > 43.4 µM
MIC (Listeria monocytogenes): 1.36 µM (≈ 2 µg/mL)
MIC [26]: 3.12 µM (≈ 4.6 µg/mL)
Structure (SMILES): CC[C@H](C)[C@H](NC(=O)[C@H](CCCCN)NC(=O)[C@@H]1CCCN1C(=O)[C@@H](NC(=O)[C@H](CC(C)C)NC(=O)[C@H](CCCCN)NC(=O)[C@H](CC(C)C)NC(=O)[C@@H](NC(=O)[C@H](CO)NC(=O)CNC(=O)[C@H](Cc1ccccc1)NC(=O)[C@@H](N)Cc1ccccc1)C(C)C)[C@@H](C)CC)C(=O)N[C@@H](CC(C)C)C(N)=O [FFGSVLKLIPKIL]
